The source of these data is US6743795B1, “3-nitropyridine derivaives and the pharmaceutical compositions containing said derivatives” (Dong Wha Pharm. Ind. Co. Ltd., priority 1999, dated 2004).

The target of one data set is T1, HBV polymerase (Hepatitis B virus genotype A2 subtype adw2, UniProt P03159).
T1 construct: made in house; host or cells: E. coli
Nature of the data set: In vitro reverse transcription activity of HBV polymerase (ELISA-type, DIG/biotin nucleotides). It is filed as biochemical. As to conditions: for inhibition at 0.01 µg/mL / inhibition at 0.1 µg/mL / inhibition at 1 µg/mL: read-out: Inhibition activity on HBV-RT (%). The method, then: <Experiment 1> Inhibitory Effect on the In Vitro Activities of HBV Polymerase in Reverse Transcription
The following in vitro experiment was performed to determine the effect of the compounds of formula 1 on the activity of HBV polymerase during reverse transcription.
The present inventors submitted application for a patent concerning HBV polymerase genetically expressed in and separated from E.coli, the process of its preparation, and the method to measure the enzyme activities (KR 94-3918, KR 96-33998). In the present experiments HBV polymerase was used which had been expressed in E. coli as stated above.
The method used in the present invention to measure in vitro reverse transcribing activities of HBV polymerase is as follows. Basic principles are the same as for ELISA. Nucleotides with biotin or digoxigenin group attached are included as substrates and anti-DIG antibodies attached to peroxidase enzyme recognize the polymerized substrates.
To the wells coated with streptavidin, 20 μl of HBV polymerase, 20 μl of reaction mixture (10 μM each of DIG-UTP and Biotin-UTP, 46 mM Tris-HCl, 266 mM KCl, 27.5 mM MgCl2, 9.2 mM DTT substrate/primer nybrid), and 20 μl of test compound (added to 1, 0.1, and 0.01 μg/ml) were added and allowed to react at 22° C. for 15 hrs. During this reaction, HBV polymerase catalyzes DNA synthesis and digoxigenin and biotin attached to nucleotides form bonds with streptavidin coated on the bottom of wells. When the reaction was done, each well was washed with 250 μl of cleaning buffer (pH 7.0) for 30 seconds, which was repeated five times to remove remaining impurities. 200 μl of anti-DIG-POD antibody was added to each well and allowed to react for 1 hr at 37° C., and the wells were washed with cleaning buffer to remove impurities. 200 μl each of ABTS™, a substrate of peroxidase, was then added and allowed to react at room temperature for 30 min. Absorbance was measured at 405 nm using ELISA reader.
The percentage of reduction in HBV polymerase activities for reverse transcription was calculated using the group without test compound as a control and the results are shown in Table 3.

In data set [1] the target is T2, HIV reverse transcriptase (Human immunodeficiency virus type 1 group M subtype B, UniProt P03366).
T2 construct: purchased Boehringer Mannheim
Nature of the data set: In vitro HIV reverse transcriptase activity (non-radioactive RT assay kit). The class given is biochemical. The method, then:
<Experiment 3> Inhibitory Effect on the In Vitro HIV Enzyme Activities in Reverse Transcription
The following in vitro experiments were done to determine the effect of compounds of formula 1 on the reduction of HIV enzyme activities in reverse transcription.
Non-radioactive reverse transcriptase assay kit (Boehringer Mannheim) was used in the measurement of in vitro transcriptase activities. 20 μl (40 ng) of HIV transcriptase and 20 μl of reaction mixture containing matrix-primer hybrid poly(A)oligo(dT)15, DIG(digoxigenin)-dUTP, biotin-dUTP, and TTP were added to wells coated with streptavidin. Test compounds were also added at the final concentrations of 0.1 and 1 μg/ml and allowed to react at 37° C. for 1 hr. At this time, DNA is formed from RNA by the action of HIV reverse transcriptase, forming bonds with streptavidin coated on the bottom of wells because of digoxigenin and biotin moieties attached to nucleotides.
When the reaction was completed, each well was washed with 250 μl of cleaning buffer (pH7.0) for 30sec. five times to remove remaining impurities. 200 μl of anti-DIG-POD […] was added to each well, allowed to react at 37° C. for 1 hr and washed as above to remove impurities. 200 μl of ABTS™, a substrate for peroxidase, was added to each well and allowed to react at room temperature for 30 min. Absorbance at 405 nm was then read for each solution using ELISA reader and used for quantitative determination of inhibitory effect on the HIV transcriptase activities. The percentage of reduction in the activities of HIV reverse transcriptase was calculated using the group without test compound as control and the results are represented in Table 5.

Another data set concerns HBV. Put plainly: Proliferation of HBV in HBV producing cell line HepG 2.2.15 (competitive PCR of culture supernatant). The class given is cell-based, Hepatitis B virus. To be noted: HepG 2.2.15, one week; for inhibition at 0.01 µg/mL / inhibition at 0.1 µg/mL / inhibition at 1 µg/mL: Hepatitis B virus, HepG2.2.15, 168 h, read-out: Inhibitory effect on the HBV proliferation: Inhibition activity on HBV-RT (%). On the procedure:
<Experiment 2> Inhibitory Effect on the Proliferation of HBV in HBV Producing Cell Line
The following experiment was performed to determine inhibitory effects of compounds of formula 1 on the proliferation of HBV producing cell line.
To test for antiviral effect, replication and proliferation of HBV were measured in HepG 2.2.15, a human liver cancer cell line.
The cell concentration was adjusted to 1×10^5 cells/ml and 1 ml was added to each well of a 24-well cell culture plate, which was then kept in a culture box for 3-4 days at 37° C. under 5% CO2 until cells grew sufficiently, changing culture medium everyday. When the cells matured sufficiently, the test compounds were added to the final concentrations of 0.01, 0.1, and 1 μg/ml. One week after the addition of test compounds, the culture solution was centrifuged at 5,000 rpm for 10 min. 25 μl of supernatant was transferred to a new tube and 5 μl of lysis solution [0.54N NaOH, 0.06% NP40] was added to each tube. After keeping the tube at 37° C. for 1 hr, 30 μl of neutralizing solution [0.09N HCl 0.1MTris-HCl, pH7.4] was added as a reaction solution for competitive polymerase chain reaction (PCR).
PCR was performed using genetic sequence of HBV core protein as a matrix. PCR reaction was carried out by adding 1 unit of Taq polymerase enzyme to 25 pmol of each primer, 250 μM dNTP, 5 μl of PCR reaction solution [0.54N NaOH, 0. 06% NP40, 0.09N HCl, 0.1M Tris-HCl, pH 7.4].
DNA polymerized by PCR was electrophoresed on Agarose gel and quantitatively analyzed using an image analyzer (Gel Doc 1000, Bio-Rad) in order to evaluate the effect of compounds of the present invention on the reduction of HBV proliferation.
3TC (lamivudine) was used as a positive control at the same concentrations as those of the test compounds. The percentage of reduction in HBV proliferation was calculated using the group without test compound as a control and the results are represented in Table 4.

A word on the melting point: it is the temperature, or range, at which the solid turns liquid.

T1 sequence (P03159 whole entry): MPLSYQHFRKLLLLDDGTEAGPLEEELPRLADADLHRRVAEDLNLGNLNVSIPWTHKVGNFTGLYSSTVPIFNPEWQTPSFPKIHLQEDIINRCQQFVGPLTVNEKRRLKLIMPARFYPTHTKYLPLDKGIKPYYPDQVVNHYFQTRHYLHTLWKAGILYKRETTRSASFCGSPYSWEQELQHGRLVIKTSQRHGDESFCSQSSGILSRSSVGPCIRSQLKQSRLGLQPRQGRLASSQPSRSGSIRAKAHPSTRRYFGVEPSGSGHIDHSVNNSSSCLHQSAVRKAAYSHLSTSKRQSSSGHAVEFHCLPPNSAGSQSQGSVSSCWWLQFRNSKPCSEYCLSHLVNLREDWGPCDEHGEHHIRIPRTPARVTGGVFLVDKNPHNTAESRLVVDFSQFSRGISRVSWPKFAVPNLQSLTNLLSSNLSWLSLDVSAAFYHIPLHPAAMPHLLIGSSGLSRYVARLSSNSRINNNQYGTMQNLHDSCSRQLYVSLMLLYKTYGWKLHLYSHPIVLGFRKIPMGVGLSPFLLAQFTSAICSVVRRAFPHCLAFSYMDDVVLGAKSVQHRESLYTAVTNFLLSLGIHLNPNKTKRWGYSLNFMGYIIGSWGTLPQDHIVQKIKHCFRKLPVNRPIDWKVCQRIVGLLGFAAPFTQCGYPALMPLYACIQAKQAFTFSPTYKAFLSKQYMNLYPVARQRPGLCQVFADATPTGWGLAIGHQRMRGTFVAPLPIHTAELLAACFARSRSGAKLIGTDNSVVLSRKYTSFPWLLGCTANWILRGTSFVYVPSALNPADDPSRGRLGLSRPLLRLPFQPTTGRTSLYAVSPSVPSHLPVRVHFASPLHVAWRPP

As for `O=[N+]([O-])c1ccc(N2CCNCC2)nc1Nc1ccc2cn[nH]c2c1` [Example 24, 2-(1H-6-indazolylamino)-3-nitro-6-(1-piperazinyl)pyridine], the melting point is 268 °C (dec.). Moreover, the inhibition at 0.01 µg/mL on HBV polymerase (0.01 μg/ml test compound) is 20%. In addition, on HBV polymerase (0.1 μg/ml test compound), the inhibition at 0.1 µg/mL came to 43%. Moreover, on HBV polymerase (1 μg/ml test compound), the inhibition at 1 µg/mL stood at 62%.

Turning to `O=[N+]([O-])c1ccc(NCc2ccncc2)nc1Nc1ccc2[nH]ncc2c1` [Example 21, 2-(1H-5-indazolylamino)-3-nitro-6-(4-pyridyl)methylaminopyridine], the “Inhibitory effect on the activities of HIV reverse transcriptase: Inhibition activity on HIV-RT (%)” value (“Inhibitory effect on the activities … (%)” below) in data set [1] (0.1 μg/ml test compound) is given as 39%; in data set [1] (1 μg/ml test compound) it was 72%. Also, the inhibition at 0.01 µg/mL with HBV (0.01 μg/ml) was 33%; at HBV polymerase (0.01 μg/ml test compound), 45%. Further, the inhibition at 0.1 µg/mL turned out to be 50% in the data set with HBV (0.1 μg/ml) and 65% on HBV polymerase (0.1 μg/ml test compound). Besides, the inhibition at 1 µg/mL with HBV (1 μg/ml) was found to be 90%; at HBV polymerase (1 μg/ml test compound), 94%.

On to `CN1CCN(Nc2ccc([N+](=O)[O-])c(Nc3ccc4cn[nH]c4c3)n2)CC1` [Example 18, 2-(1H-6-indazolylamino)-6-(4-methyl-1-piperazinyl)amino-3-nitropyridine], for which the melting point is 260 °C (dec.). For the same molecule, the inhibition at 0.01 µg/mL on HBV polymerase (0.01 μg/ml test compound) is 25%. In addition, the inhibition at 0.1 µg/mL at HBV polymerase (0.1 μg/ml test compound) amounted to 43%. The inhibition at 1 µg/mL on HBV polymerase (1 μg/ml test compound) was determined as 70%.

As for `CC(C)Nc1ccc([N+](=O)[O-])c(Nc2ccc3[nH]ncc3c2)n1` [Example 5, 2-(1H-5-indazolylamino)-6-isopropyl amino-3-nitropyridine], the results for the “Inhibitory effect on the activities … (%)” value in data set [1] (0.1 μg/ml test compound) and in data set [1] (1 μg/ml test compound) were 20% and 55%, respectively. Further, the entries for the “Inhibitory effect on the HBV proliferation: Inhibition activity on HBV-RT (%)” value (“Inhibitory effect on the HBV proliferation … (%)” below) in the data set with HBV (0.01 μg/ml), in the data set with HBV (0.1 μg/ml) and in the data set with HBV (1 μg/ml) were 41%, 81% and 94%, respectively. Besides, the “Inhibition activity on HBV-RT (%)” value at HBV polymerase (0.01 μg/ml test compound) was 53%; at HBV polymerase (0.1 μg/ml test compound), 87%; at HBV polymerase (1 μg/ml test compound) it was 96%.

For the molecule `O=[N+]([O-])c1ccc(NCc2ccccn2)nc1Nc1ccc2cn[nH]c2c1` [Example 22, 2-(1H-6-indazolylamino)-3-nitro-6-(2-pyridyl)methylaminopyridine], the melting point was 256 °C (dec.). Also, the inhibition at 0.01 µg/mL at HBV polymerase (0.01 μg/ml test compound) came to 49%. Further, the inhibition at 0.1 µg/mL at HBV polymerase (0.1 μg/ml test compound) is 60%. On HBV polymerase (1 μg/ml test compound), the inhibition at 1 µg/mL is 81%.

Consider `COc1ccc([N+](=O)[O-])c(Nc2ccc3[nH]ncc3c2)n1` [Example 1, 2-(1H-5-indazolylamino)-6-methoxy-3-nitropyridine], for which the “Inhibitory effect on the activities … (%)” value in data set [1] (0.1 μg/ml test compound) was 35%; in data set [1] (1 μg/ml test compound), 75%. Moreover, the inhibition at 0.01 µg/mL stood at 20% with HBV (0.01 μg/ml) and 30% at HBV polymerase (0.01 μg/ml test compound). In addition, the figures for the inhibition at 0.1 µg/mL in the data set with HBV (0.1 μg/ml) and at HBV polymerase (0.1 μg/ml test compound) were 45% and 54%, respectively. Also, the figures for the inhibition at 1 µg/mL in the data set on HBV (1 μg/ml) and on HBV polymerase (1 μg/ml test compound) were 82% and 85%, respectively.

`CN(C)CCNc1ccc([N+](=O)[O-])c(Nc2ccc3cn[nH]c3c2)n1` [Example 16, 6-[2-(dimethylamino)ethylamino]-2-(1H-6-indazolylamino)-3-nitropyridine]: the “Inhibitory effect on the activities … (%)” value in data set [1] (0.1 μg/ml test compound) was found to be 51%; in data set [1] (1 μg/ml test compound), 75%. On HBV polymerase (0.01 μg/ml test compound), the inhibition at 0.01 µg/mL is 38%. Moreover, the inhibition at 0.1 µg/mL on HBV polymerase (0.1 μg/ml test compound) was 55%. Moreover, the inhibition at 1 µg/mL at HBV polymerase (1 μg/ml test compound) is 80%.

Turning to `CNc1ccc([N+](=O)[O-])c(Nc2ccc3cn[nH]c3c2)n1` [Example 4, 2-(1H-6-indazolylamino)-6-methyl amino-3-nitropyridine], the figures for the “Inhibitory effect on the activities … (%)” value in data set [1] (0.1 μg/ml test compound) and in data set [1] (1 μg/ml test compound) were 51% and 70%, respectively. Besides, the “Inhibitory effect on the HBV proliferation … (%)” value is 40% in the data set with HBV (0.1 μg/ml) and 58% with HBV (1 μg/ml). The “Inhibition activity on HBV-RT (%)” value at HBV polymerase (0.01 μg/ml test compound) was 26%; at HBV polymerase (0.1 μg/ml test compound), 51%; on HBV polymerase (1 μg/ml test compound), 60%.

In the case of `CN1CCN(c2ccc([N+](=O)[O-])c(Nc3ccc4cn[nH]c4c3)n2)CC1` (hydrate or solvate) [Example 26, 2-(1H-6-indazolylamino)-6-(4-methyl-1-piperazinyl)-3-nitropyridine], the melting point was 253 °C (dec.).

As for `CC(C)CNc1ccc([N+](=O)[O-])c(Nc2ccc3[nH]ncc3c2)n1` [Example 7, 2-(1H-5-indazolylamino)-6-isobuthyl amino-3-nitropyridine], the “Inhibitory effect on the activities … (%)” value in data set [1] (0.1 μg/ml test compound) is recorded as 45%; in data set [1] (1 μg/ml test compound), 72%. Also, the results for the “Inhibitory effect on the HBV proliferation … (%)” value in the data set with HBV (0.01 μg/ml), in the data set with HBV (0.1 μg/ml) and with HBV (1 μg/ml) were 30%, 75% and 93%, respectively. For the same molecule, the “Inhibition activity on HBV-RT (%)” value at HBV polymerase (0.01 μg/ml test compound) was 47%; on HBV polymerase (0.1 μg/ml test compound), 80%; at HBV polymerase (1 μg/ml test compound) it was 95%.
